Source: ChEMBL document CHEMBL3045247, “GUANIDINES: FROM MOLECULE TO PRIMATE” (2004)

Columns and labels:
Design in all cases: scale not given: the % may be the effect or the level left
Papio ursinus [1] = assay: Cardioprotective activity in Papio ursinus (baboon) ischaemic reperfusion injury model assessed as reduction of systolic blood pressure at 2 mg/kg, iv after 10 min; type: functional, Artery
Papio ursinus [2] = assay: Cardioprotective activity in Papio ursinus (baboon) ischaemic reperfusion injury model assessed as reduction of heart rate at 1 mg/kg, iv after 15 min relative to control; type: functional
Papio ursinus [3] = assay: Cardioprotective activity in Papio ursinus (baboon) ischaemic reperfusion injury model assessed as reduction of diastolic blood pressure at 1 mg/kg, iv after 6 min; type: functional, Artery
Papio ursinus [4] = assay: Cardioprotective activity in Papio ursinus (baboon) ischaemic reperfusion injury model assessed as reduction of diastolic blood pressure at 1 mg/kg, iv after 20 min; type: functional, Artery
Papio ursinus [5] = assay: Cardioprotective activity in Papio ursinus (baboon) ischaemic reperfusion injury model assessed as reduction of systolic blood pressure at 2 mg/kg, iv after 20 min; type: functional, Artery
Papio ursinus [6] = assay: Cardioprotective activity in Papio ursinus (baboon) ischaemic reperfusion injury model assessed as reduction of diastolic blood pressure at 1 mg/kg, iv after 10 min; type: functional, Artery
Papio ursinus [7] = assay: Cardioprotective activity in Papio ursinus (baboon) ischaemic reperfusion injury model assessed as reduction of systolic blood pressure at 1 mg/kg, iv after 25 min; type: functional, Artery
Papio ursinus [8] = assay: Cardioprotective activity in Papio ursinus (baboon) ischaemic reperfusion injury model assessed as reduction of heart rate at 2 mg/kg, iv after 4 min relative to control; type: functional
Papio ursinus [9] = assay: Cardioprotective activity in Papio ursinus (baboon) ischaemic reperfusion injury model assessed as reduction of diastolic blood pressure at 2 mg/kg, iv after 4 min; type: functional, Artery
Papio ursinus [10] = assay: Cardioprotective activity in Papio ursinus (baboon) ischaemic reperfusion injury model assessed as reduction of diastolic blood pressure at 2 mg/kg, iv after 2 min; type: functional, Artery
Papio ursinus [11] = assay: Cardioprotective activity in Papio ursinus (baboon) ischaemic reperfusion injury model assessed as reduction of diastolic blood pressure at 1 mg/kg, iv after 4 min; type: functional, Artery
Papio ursinus [12] = assay: Cardioprotective activity in Papio ursinus (baboon) ischaemic reperfusion injury model assessed as reduction of heart rate at 2 mg/kg, iv after 2 min relative to control; type: functional
Papio ursinus [13] = assay: Cardioprotective activity in Papio ursinus (baboon) ischaemic reperfusion injury model assessed as reduction of systolic blood pressure at 2 mg/kg, iv after 15 min; type: functional, Artery
Papio ursinus [14] = assay: Cardioprotective activity in Papio ursinus (baboon) ischaemic reperfusion injury model assessed as reduction of heart rate at 1 mg/kg, iv after 20 min relative to control; type: functional
Papio ursinus [15] = assay: Cardioprotective activity in Papio ursinus (baboon) ischaemic reperfusion injury model assessed as reduction of heart rate at 1 mg/kg, iv after 10 min relative to control; type: functional
Papio ursinus [16] = assay: Cardioprotective activity in Papio ursinus (baboon) ischaemic reperfusion injury model assessed as reduction of systolic blood pressure at 2 mg/kg, iv after 25 min; type: functional, Artery
Papio ursinus [17] = assay: Cardioprotective activity in Papio ursinus (baboon) ischaemic reperfusion injury model assessed as reduction of systolic blood pressure at 1 mg/kg, iv after 6 min; type: functional, Artery
Papio ursinus [18] = assay: Cardioprotective activity in Papio ursinus (baboon) ischaemic reperfusion injury model assessed as reduction of systolic blood pressure at 2 mg/kg, iv after 2 min; type: functional, Artery
Papio ursinus [19] = assay: Cardioprotective activity in Papio ursinus (baboon) ischaemic reperfusion injury model assessed as reduction of systolic blood pressure at 1 mg/kg, iv after 15 min; type: functional, Artery
Papio ursinus [20] = assay: Cardioprotective activity in Papio ursinus (baboon) ischaemic reperfusion injury model assessed as reduction of systolic blood pressure at 1 mg/kg, iv after 20 min; type: functional, Artery
Papio ursinus [21] = assay: Cardioprotective activity in Papio ursinus (baboon) ischaemic reperfusion injury model assessed as reduction of heart rate at 1 mg/kg, iv after 4 min relative to control; type: functional
Papio ursinus [22] = assay: Cardioprotective activity in Papio ursinus (baboon) ischaemic reperfusion injury model assessed as reduction of heart rate at 1 mg/kg, iv after 6 min relative to control; type: functional
Papio ursinus [23] = assay: Cardioprotective activity in Papio ursinus (baboon) ischaemic reperfusion injury model assessed as reduction of systolic blood pressure at 2 mg/kg, iv after 6 min; type: functional, Artery
Papio ursinus [24] = assay: Cardioprotective activity in Papio ursinus (baboon) ischaemic reperfusion injury model assessed as reduction of diastolic blood pressure at 2 mg/kg, iv after 20 min; type: functional, Artery
Papio ursinus [25] = assay: Cardioprotective activity in Papio ursinus (baboon) ischaemic reperfusion injury model assessed as reduction of diastolic blood pressure at 2 mg/kg, iv after 25 min; type: functional, Artery
Papio ursinus [26] = assay: Cardioprotective activity in Papio ursinus (baboon) ischaemic reperfusion injury model assessed as reduction of heart rate at 1 mg/kg, iv after 25 min relative to control; type: functional
Papio ursinus [27] = assay: Cardioprotective activity in Papio ursinus (baboon) ischaemic reperfusion injury model assessed as reduction of systolic blood pressure at 1 mg/kg, iv after 2 min; type: functional, Artery
Papio ursinus [28] = assay: Cardioprotective activity in Papio ursinus (baboon) ischaemic reperfusion injury model assessed as reduction of diastolic blood pressure at 1 mg/kg, iv after 25 min; type: functional, Artery
Papio ursinus [29] = assay: Cardioprotective activity in Papio ursinus (baboon) ischaemic reperfusion injury model assessed as reduction of diastolic blood pressure at 2 mg/kg, iv after 15 min; type: functional, Artery
Papio ursinus [30] = assay: Cardioprotective activity in Papio ursinus (baboon) ischaemic reperfusion injury model assessed as reduction of diastolic blood pressure at 2 mg/kg, iv after 6 min; type: functional, Artery
Papio ursinus [31] = assay: Cardioprotective activity in Papio ursinus (baboon) ischaemic reperfusion injury model assessed as reduction of diastolic blood pressure at 1 mg/kg, iv after 2 min; type: functional, Artery
Papio ursinus [32] = assay: Cardioprotective activity in Papio ursinus (baboon) ischaemic reperfusion injury model assessed as reduction of heart rate at 2 mg/kg, iv after 10 min relative to control; type: functional
Papio ursinus [33] = assay: Cardioprotective activity in Papio ursinus (baboon) ischaemic reperfusion injury model assessed as reduction of heart rate at 2 mg/kg, iv after 6 min relative to control; type: functional
Papio ursinus [34] = assay: Cardioprotective activity in Papio ursinus (baboon) ischaemic reperfusion injury model assessed as reduction of systolic blood pressure at 1 mg/kg, iv after 4 min; type: functional, Artery
Papio ursinus [35] = assay: Cardioprotective activity in Papio ursinus (baboon) ischaemic reperfusion injury model assessed as reduction of systolic blood pressure at 2 mg/kg, iv after 4 min; type: functional, Artery
Papio ursinus [36] = assay: Cardioprotective activity in Papio ursinus (baboon) ischaemic reperfusion injury model assessed as reduction of heart rate at 1 mg/kg, iv after 2 min relative to control; type: functional
Papio ursinus [37] = assay: Cardioprotective activity in Papio ursinus (baboon) ischaemic reperfusion injury model assessed as reduction of heart rate at 2 mg/kg, iv after 20 min relative to control; type: functional
Papio ursinus [38] = assay: Cardioprotective activity in Papio ursinus (baboon) ischaemic reperfusion injury model assessed as reduction of diastolic blood pressure at 2 mg/kg, iv after 10 min; type: functional, Artery
Papio ursinus [39] = assay: Cardioprotective activity in Papio ursinus (baboon) ischaemic reperfusion injury model assessed as reduction of heart rate at 2 mg/kg, iv after 15 min relative to control; type: functional
Papio ursinus [40] = assay: Cardioprotective activity in Papio ursinus (baboon) ischaemic reperfusion injury model assessed as reduction of systolic blood pressure at 1 mg/kg, iv after 10 min; type: functional, Artery
Papio ursinus [41] = assay: Cardioprotective activity in Papio ursinus (baboon) ischaemic reperfusion injury model assessed as reduction of diastolic blood pressure at 1 mg/kg, iv after 15 min; type: functional, Artery
Papio ursinus [42] = assay: Cardioprotective activity in Papio ursinus (baboon) ischaemic reperfusion injury model assessed as reduction of heart rate at 2 mg/kg, iv after 25 min relative to control; type: functional

## COc1ccc(/C=N/NC(=N)N)c(Cl)c1OC
Papio ursinus [1]
  Activity: 7.45%
Papio ursinus [2]
  Activity: 15.47%
Papio ursinus [3]
  Activity: 3.8%
Papio ursinus [4]
  Activity: 31.36%
Papio ursinus [5]
  Activity: 8.48%
Papio ursinus [6]
  Activity: 7.58%
Papio ursinus [7]
  Activity: 16.22%
Papio ursinus [8]
  Activity: 17.1%
Papio ursinus [9]
  Activity: 4.24%
Papio ursinus [10]
  Activity: 10.1%
Papio ursinus [11]
  Activity: 2.67%
Papio ursinus [12]
  Activity: 12.95%
Papio ursinus [13]
  Activity: 6.84%
Papio ursinus [14]
  Activity: 15.6%
Papio ursinus [15]
  Activity: 15.96%
Papio ursinus [16]
  Activity: 9.54%
Papio ursinus [17]
  Activity: 0.26%
Papio ursinus [18]
  Activity: 5.24%
Papio ursinus [19]
  Activity: 9.36%
Papio ursinus [20]
  Activity: 10.56%
Papio ursinus [21]
  Activity: 10.77%
Papio ursinus [22]
  Activity: 14.6%
Papio ursinus [23]
  Activity: 5.72%
Papio ursinus [24]
  Activity: 4.9%
Papio ursinus [25]
  Activity: 2.78%
Papio ursinus [26]
  Activity: 18.28%
Papio ursinus [27]
  Activity: 0.02%
Papio ursinus [28]
  Activity: 20.31%
Papio ursinus [29]
  Activity: 2.2%
Papio ursinus [30]
  Activity: 1.78%
Papio ursinus [31]
  Activity: 0.02%
Papio ursinus [32]
  Activity: 18.88%
Papio ursinus [33]
  Activity: 18.96%
Papio ursinus [34]
  Activity: 0.3%
Papio ursinus [35]
  Activity: 3.1%
Papio ursinus [36]
  Activity: 5.33%
Papio ursinus [37]
  Activity: 19.52%
Papio ursinus [38]
  Activity: 1.02%
Papio ursinus [39]
  Activity: 19.68%
Papio ursinus [40]
  Activity: 3.62%
Papio ursinus [41]
  Activity: 15.16%
Papio ursinus [42]
  Activity: 27.74%
